Values of other authors in patent publication US20050004224A1, “Treatment of Alzheimer's disease with the R(-) isomer of a 2-arylpropionic acid non-steroidal anti-inflammatory drug alone or in combination with a cyclooxygenase-2 selective inhibitor” (Pharmacia Corporation, priority 2003, published 2005).

What was measured:
murine cells = settings: Ogawa et al. 2000
[1] = Asanuma et al. 2001
A-beta 1-42 peptide = settings: Weggen et al. 2001
[2] = system: patients with osteoarthritis; settings: Singer et al. 2000
neuronal cells = settings: Blasko et al. 2001
[3] = Lambat et al. 2000
[4] = Lambat et al. 2000; remark: listed apart in the source
AD models = settings: chronic ibuprofen; some AD models; Lim et al. 2001

Structure (SMILES)	beta-amyloid protein and interferon-gamma-induced NO production (murine cells)	production of the amyloidogenic A-beta 1-42 peptide (A-beta 1-42 peptide)	further results
CC(=O)Oc1ccccc1C(=O)O [aspirin]	did not produce such an effect		
CC(C(=O)O)c1cccc(C(=O)c2ccccc2)c1 (stereo not drawn) [ketoprofen]			nitric oxide-scavenging ability [1]: have such activity
CSc1ccc(/C=C2/C(C)=C(CC(=O)O)c3cc(F)ccc32)cc1 [sulindac sulfide]		reduced	
COc1ccc2c(c1)c(CC(=O)O)c(C)n2C(=O)c1ccc(Cl)cc1 [indomethacin]	reduced	reduced	
CC(C)Cc1ccc([C@H](C)C(=O)O)cc1 (single isomer, unassigned) [S(+) isomer of ibuprofen]			effective NSAID for patients with osteoarthritis [2]: effective
CC(C)Cc1ccc(C(C)C(=O)O)cc1 (stereo not drawn) [ibuprofen, α-methyl-4-[isobutyl]phenylacetic acid]	reduced	reduced	cytokine-induced amyloid Beta production (neuronal cells): reduced; quinolinic acid-induced lipid peroxidation [3]: reducing; cyanide-induced speroxide production [4]: reducing; inflammation and plaque-related pathology (AD models): suppress
